Measurements reported in US8067613B2 (Abbott Laboratories, priority 2007, dated 2011).

Target: T1, Recombinant Human Poly(ADP-Ribose)Polymerase (PARP), PARP-1 (Homo sapiens, UniProt P09874)
T1 construct: purchased Trevigen (Gaithersburg, Md.); host or cells: E. coli
Assay: PARP1 assay (SPA/FlashPlate, [3H]-NAD+ incorporation into biotinylated histone H1)
Type: biochemical
Conditions: 1 nM PARP enzyme, 1.5 μM [3H]-NAD+, 200 nM biotinylated histone H1, 200 nM slDNA; Ki from inhibition curves at various substrate concentrations
Method: Nicotinamide[2,5′,8-3H]adenine dinucleotide and strepavidin SPA beads were obtained from Amersham Biosiences (UK). Recombinant Human Poly(ADP-Ribose)Polymerase (PARP), purified from E. coli and 6-Biotin-17-NAD^+, were obtained from Trevigen (Gaithersburg, Md.). NAD^+, histone, aminobenzamide, 3-aminobenzamide and Calf Thymus DNA (dcDNA) were obtained from Sigma (St. Louis, Mo.). Stem loop oligonucleotide containing MCAT sequence was obtained from Qiagen. The oligos were dissolved to 1 mM in annealing buffer containing 10 mM Tris HCl (pH 7.5), 1 mM EDTA, and 50 mM NaCl, incubated for 5 minutes at 95° C. and annealed at 45° C. for 45 minutes. Histone H1 (95% electrophoretically pure) was obtained from Roche (Indianapolis, Ind. Biotinylated histone H1 was prepared by treating the protein with Sulfo-NHS-LC-Biotin (Pierce Rockford, Ill.). The biotinylation reaction was conducted by slowly and intermittently adding 3 equivalents of 10 mM Sulfo-NHS-LC-Biotin to 100 μM Histone H1 in phosphate-buffered saline, pH 7.5, at 4° C. with gentle vortexing over 1 minute then incubation at 4° C. for 1 hour. Streptavidin coated (FlashPlate Plus) microplates were obtained from Perkin Elmer (Boston, Mass.).
PARP1 assay was conducted in PARP assay buffer containing 50 mM tris (pH 8.0), 1 mM DTT and 4 mM MgCl2. PARP reactions contained 1.5 μM [^3H]-NAD^+ (1.6 μCi/mmol), 200 nM biotinylated histone H1, 200 nM slDNA, and 1 nM PARP enzyme. Auto reactions utilizing SPA bead-based detection were carried out in 100 μL volumes in white 96 well plates.
Reactions were initiated by adding 50 μL of 2×NAD^+ substrate mixture to 50 μL of 2× enzyme mixture containing PARP and DNA. These reactions were terminated by the addition of 150 μL of 1.5 mM benzamide (1000-fold over its IC50). 170 μL of the stopped reaction mixtures were transferred to streptavidin Flash Plates, incubated for 1 hour and counted using a TopCount microplate scintillation counter. The Ki data (in nM) for representative compounds of this invention were determined from inhibition curves at various substrate concentrations and are shown in TABLE 1.

T1 sequence (P09874 whole entry): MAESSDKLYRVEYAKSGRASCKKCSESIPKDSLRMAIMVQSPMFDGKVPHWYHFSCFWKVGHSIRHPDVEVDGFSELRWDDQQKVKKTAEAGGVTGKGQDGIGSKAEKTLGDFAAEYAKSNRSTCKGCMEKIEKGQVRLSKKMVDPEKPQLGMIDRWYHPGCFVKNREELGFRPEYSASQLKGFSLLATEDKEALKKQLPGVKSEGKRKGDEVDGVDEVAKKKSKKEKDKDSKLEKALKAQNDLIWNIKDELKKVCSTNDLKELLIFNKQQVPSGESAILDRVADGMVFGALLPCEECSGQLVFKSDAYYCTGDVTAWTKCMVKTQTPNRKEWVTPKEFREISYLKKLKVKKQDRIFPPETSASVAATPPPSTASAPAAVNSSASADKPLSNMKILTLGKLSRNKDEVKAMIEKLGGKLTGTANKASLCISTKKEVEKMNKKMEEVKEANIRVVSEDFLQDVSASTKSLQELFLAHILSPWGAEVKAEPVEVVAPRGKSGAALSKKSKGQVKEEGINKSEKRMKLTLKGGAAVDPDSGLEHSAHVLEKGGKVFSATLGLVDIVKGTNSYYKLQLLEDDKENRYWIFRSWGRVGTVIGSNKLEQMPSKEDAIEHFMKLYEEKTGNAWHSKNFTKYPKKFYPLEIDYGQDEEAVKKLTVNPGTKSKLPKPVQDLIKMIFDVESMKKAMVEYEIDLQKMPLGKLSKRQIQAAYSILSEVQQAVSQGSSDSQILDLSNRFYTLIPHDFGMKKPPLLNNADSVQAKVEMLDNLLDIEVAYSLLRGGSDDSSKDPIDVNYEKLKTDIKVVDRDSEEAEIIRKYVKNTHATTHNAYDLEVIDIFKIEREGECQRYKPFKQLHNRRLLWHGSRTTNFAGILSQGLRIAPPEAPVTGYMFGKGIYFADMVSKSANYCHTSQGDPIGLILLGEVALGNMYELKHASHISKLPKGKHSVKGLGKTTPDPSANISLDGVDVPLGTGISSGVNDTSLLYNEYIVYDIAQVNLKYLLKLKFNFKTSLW

| SMILES | Ki [nM] |
| --- | --- |
| NC(=O)c1cccc2[nH]c(-c3ccc(C4CCCCN4C4CCC4)s3)nc12 (stereo not drawn) [Example 32, 2-(5-(1-cyclobutylpiperidin-2-yl)thien-2-yl)-1H-benzimidazole-4-carboxamide] | 23 |
| Cc1nc(-c2cnccn2)sc1-c1nc2c(C(N)=O)cccc2[nH]1 [Example 3, 2-(4-methyl-2-pyrazin-2-yl-1,3-thiazol-5-yl)-H-benzimidazole-4-carboxamide] | 28 |
| NC(=O)c1cccc2[nH]c(-c3ccc(C4CCCN4)s3)nc12 (stereo not drawn) [Example 34, 2-(5-pyrrolidin-2-ylthien-2-yl)-1H-benzimidazole-4-carboxamide] | 7 |
| CN1CCCC1c1ccc(-c2nc3c(C(N)=O)cccc3[nH]2)s1 (stereo not drawn) [Example 35, 2-(5-(1-methylpyrrolidin-2-yl)thien-2-yl)-1H-benzimidazole-4-carboxamide] | 7 |
| NC(=O)c1cccc2[nH]c(-c3ccc([C@H]4CCCN4C4CCC4)s3)nc12 [Example 21, 2-(5-((2R)-1-cyclobutylpyrrolidin-2-yl)thien-2-yl)-1H-benzimidazole-4-carboxamide] | 4 |
| CC(C)N1CCCC1c1ccc(-c2nc3c(C(N)=O)cccc3[nH]2)cn1 (stereo not drawn) [Example 44, 2-[6-(1-isopropylpyrrolidin-2-yl)pyridin-3-yl]-1H-benzimidazole-4-carboxamide] | 41 |
| CC(C)N1CCCC1c1ccc(-c2nc3c(C(N)=O)cccc3[nH]2)s1 (stereo not drawn) [Example 36, 2-(5-(1-isopropylpyrrolidin-2-yl)thien-2-yl)-1H-benzimidazole-4-carboxamide] | 5 |
| CC(C)N1CCC[C@@H]1c1ccc(-c2nc3c(C(N)=O)cccc3[nH]2)s1 [Example 18, 2-(5-((2R)-1-isopropylpyrrolidin-2-yl)thien-2-yl)-1H-benzimidazole-4-carboxamide] | 6 |
| NC(=O)c1cccc2[nH]c(-c3ccc(C4CCCN4)nc3)nc12 (stereo not drawn) [Example 43, 2-(6-pyrrolidin-2-ylpyridin-3-yl)-1H-benzimidazole-4-carboxamide] | 3 |
| NC(=O)c1cccc2[nH]c(-c3ccc(C4CCCCN4)s3)nc12 (stereo not drawn) [Example 28, 2-(5-piperidin-2-ylthien-2-yl)-1H-benzimidazole-4-carboxamide] | 7 |
| NC(=O)c1cccc2[nH]c(-c3ccc([C@H]4CCCN4)s3)nc12 [Example 16, 2-(5-((2R)-pyrrolidin-2-yl)thien-2-yl)-1H-benzimidazole-4-carboxamide] | 6 |
| NC(=O)c1cccc2[nH]c(-c3ccc(-c4ccc[nH]4)s3)nc12 [Example 15, 2-(5-(1H-pyrrol-2-yl)thien-2-yl)-1H-benzimidazole-4-carboxamide] | 5 |
| NC(=O)c1cccc2[nH]c(-c3csc(-c4cccnc4)n3)nc12 [Example 1] | 14.5 |
| CN1CCC[C@@H]1c1ccc(-c2nc3c(C(N)=O)cccc3[nH]2)s1 [Example 17, 2-(5-((2R)-1-methylpyrrolidin-2-yl)thien-2-yl)-1H-benzimidazole-4-carboxamide] | 10 |
| NC(=O)c1cccc2[nH]c(-c3csc(C4CCNCC4)n3)nc12 [Example 5, 2-(2-piperidin-4-yl-1,3-thiazol-4-yl)-1H-benzimidazole-4-carboxamide] | 32 |
| NC(=O)c1cccc2[nH]c(-c3ccc([C@H]4CCCN4C4CCCC4)s3)nc12 [Example 22, 2-(5-((2R)-1-cyclopentylpyrrolidin-2-yl)thien-2-yl)-1H-benzimidazole-4-carboxamide] | 3 |
| NC(=O)c1cccc2[nH]c(-c3csc(-c4ccncc4)n3)nc12 [Example 2] | 11.8 |
| CC(C)N1CCC(c2nc(-c3nc4c(C(N)=O)cccc4[nH]3)cs2)CC1 [Example 7, 2-(2-(1-isopropylpiperidin-4-yl)-1,3-thiazol-4-yl)-1H-benzimidazole-4-carboxamide] | 61 |
| NC(=O)c1cccc2[nH]c(-c3ccc(-c4ncccn4)s3)nc12 [Example 12, 2-(5-pyrimidin-2-ylthien-2-yl)-1H-benzimidazole-4-carboxamide] | 9 |
| NC(=O)c1cccc2[nH]c(-c3ccc(-c4ccncc4)s3)nc12 [Example 14, 2-(5-pyridin-4-ylthien-2-yl)-1H-benzimidazole-4-carboxamide] | 3.2 |

| SMILES | Ki [nM] |
| --- | --- |
| CCCN1CCC(c2nc(-c3nc4c(C(N)=O)cccc4[nH]3)cs2)CC1 [Example 8, 2-(2-(1-propylpiperidin-4-yl)-1,3-thiazol-4-yl)-1H-benzimidazole-4-carboxamide] | 50 |
| NC(=O)c1cccc2[nH]c(-c3ccc([C@H]4CCCN4CC4CC4)s3)nc12 [Example 20, 2-(5-((2R)-1-(cyclopropylmethyl)pyrrolidin-2-yl)thien-2-yl)-1H-benzimidazole-4-carboxamide] | 5 |
| NC(=O)c1cccc2[nH]c(-c3ccc(-c4ccccn4)s3)nc12 [Example 10, 2-(5-pyridin-2-ylthien-2-yl)-1H-benzimidazole-4-carboxamide] | 3.1 |
| CC(C)CN1CCCC1c1ccc(-c2nc3c(C(N)=O)cccc3[nH]2)s1 (stereo not drawn) [Example 39, 2-(5-(1-isobutylpyrrolidin-2-yl)thien-2-yl)-1H-benzimidazole-4-carboxamide] | 11 |
| NC(=O)c1cccc2[nH]c(-c3csc(C4CCN(C5CCC5)CC4)n3)nc12 [Example 9, 2-(2-(1-cyclobutylpiperidin-4-yl)-1,3-thiazol-4-yl)-1H-benzimidazole-4-carboxamide] | 44 |
| NC(=O)c1cccc2[nH]c(-c3ccc(C4CCCN4C4CCC4)s3)nc12 (stereo not drawn) [Example 40, 2-(5-(1-cyclobutylpyrrolidin-2-yl)thien-2-yl)-1H-benzimidazole-4-carboxamide] | 10 |
| NC(=O)c1cccc2[nH]c(-c3ccc(C4CCCCN4CC4CC4)s3)nc12 (stereo not drawn) [Example 31, 2-(5-(1-(cyclopropylmethyl)piperidin-2-yl)thien-2-yl)-1H-benzimidazole-4-carboxamide] | 11 |
| CCCN1CCCCC1c1ccc(-c2nc3c(C(N)=O)cccc3[nH]2)s1 (stereo not drawn) [Example 30, 2-(5-(1-propylpiperidin-2-yl)thien-2-yl)-1H-benzimidazole-4-carboxamide] | 16 |
| CN1CCCCC1c1ccc(-c2nc3c(C(N)=O)cccc3[nH]2)s1 (stereo not drawn) [Example 29, 2-(5-(1-methylpiperidin-2-yl)thien-2-yl)-1H-benzimidazole-4-carboxamide] | 14 |
| NC(=O)c1cccc2[nH]c(-c3ccc(-c4nnc(C(F)(F)F)o4)cn3)nc12 [Example 52, 2-{5-[5-(trifluoromethyl)-1,3,4-oxadiazol-2-yl]pyridin-2-yl}-1H-benzimidazole-4-carboxamide] | 14 |
| CC(C)CN1CCCCC1c1ccc(-c2nc3c(C(N)=O)cccc3[nH]2)s1 (stereo not drawn) [Example 33, 2-(5-(1-isobutylpiperidin-2-yl)thien-2-yl)-1H-benzimidazole-4-carboxamide] | 21 |
| NC(=O)c1cccc2[nH]c(-c3ccc(C4CCCN4C4CCCCC4)nc3)nc12 (stereo not drawn) [Example 48, 2-[6-(1-cyclohexylpyrrolidin-2-yl),pyridin-3-yl]-1H-benzimidazole-4-carboxamide] | 14 |
| NC(=O)c1cccc2[nH]c(-c3csc(-c4cccs4)n3)nc12 [Example 4, 2-(2-thien-2-yl-1,3-thiazol-4-yl)-1H-benzimidazole-4-carboxamide] | 20.9 |
| NC(=O)c1cccc2[nH]c(-c3ccc(-c4nnco4)cn3)nc12 [Example 51, 2-[5-(1,3,4-oxadiazol-2-yl)pyridin-2-yl]-1H-benzimidazole-4-carboxamide] | 1.8 |
| NC(=O)c1cccc2[nH]c(-c3ccc(-c4cnccn4)s3)nc12 [Example 11, 2-(5-pyrazin-2-ylthien-2-yl)-1H-benzimidazole-4-carboxamide] | 2 |
| NC(=O)c1cccc2[nH]c(-c3ccc([C@H]4CCCN4C4CCCCC4)s3)nc12 [Example 23, 2-(5-((2R)-1-cyclohexylpyrrolidin-2-yl)thien-2-yl)-1H-benzimidazole-4-carboxamide] | 8 |
| Cc1nnc(-c2ccc(-c3nc4c(C(N)=O)cccc4[nH]3)nc2)o1 [Example 53, 2-[5-(5-methyl-1,3,4-oxadiazol-2-yl)pyridin-2-yl]-1H-benzimidazole-4-carboxamide] | 317 |
| NC(=O)c1cccc2[nH]c(-c3ccc(C4CCCN4C4CCOCC4)nc3)nc12 (stereo not drawn) [Example 49, 2-[6-(1-tetrahydro-2H-pyran-4-ylpyrrolidin-2-yl),pyridin-3-yl]-1H-benzimidazole-4-carboxamide] | 17 |
| NC(=O)c1cccc2[nH]c(-c3ccc(C4CCCN4C4CCCC4)s3)nc12 (stereo not drawn) [Example 41, 2-(5-(1-cyclopentylpyrrolidin-2-yl)thien-2-yl)-1H-benzimidazole-4-carboxamide] | 5 |
